Reference: US20090169648A1, “COMPOSITIONS TO REDUCE BLOOD GLUCOSE LEVELS AND TREAT DIABETES” (Astrum Therapeutics Pty Ltd, priority 2006, published 2009)
Like-named read-outs stand apart in the source and are kept apart here.

Tests used:
[1] = test system: DM patients; conditions: cited from earlier work
[2] = test system: humans; conditions: cited from earlier work
[3] = test system: T2DM patients; conditions: 200 μg twice daily, three weeks, cited from earlier work
[4] = test system: T2DM patients; conditions: 200 μg twice daily, 12 weeks, versus placebo; cited from earlier work
[5] = test system: Fatty diabetic Zucker rats; assay: Fatty diabetic Zucker rats, 4-week diets, fasting glucose; format: in vivo, rat; conditions: diet for 4 weeks
Experimental: Fatty diabetic Zucker rats were separated into three groups to receive three diets for 4 weeks: a) 1% Mg in diet (5 times higher than control diet); b) a combination including 2 g/L of vitamin C in drinking water, 2.5% of KM in diet, 400 mg/kg of α-LA; c) Comp1 that includes 1% of Mg in diet, 2 g/L of vitamin C in drinking water, 2.5% of KM in diet, 400 mg/kg of α-LA.
No change in the level of fasting glucose level vs baseline was observed by the administration of Mg. 17% reduction of glucose vs baseline was observed by the combination of Vitamin C, KM and α-LA. 28% reduction of glucose vs baseline was observed by Comp1 (the combination of Vitamin C, KM and α-LA with Mg salt)

[6] = test system: humans; conditions: seven clinical trials; cited from earlier work
[7] = test system: timed-pregnant Sprague-Dawley rats; conditions: rat, in vivo; cited from earlier work
[8] = test system: humans; conditions: exposure of humans; cited from earlier work

## O=C(O)CCCCC1CCSS1 (stereo not drawn) [α-LA, Alpha-lipoic acid]
[1]
  decrease of levels of peroxides: 34%
[2]; lean T2DM patients
  reduction of fasting glucose level: ~15%
[2]; patients with diabetic neuropathy
  reduction of fasting glucose level: 18%
[2]; two clinical trials
  effect on glucose levels: no effect

## Chromium picolinate [CrPic]
[3]; T2DM patients
  reduction in glucose versus baseline: −21%
[3]
  change in cholesterol versus baseline: −9.4%
  change in triglycerides versus baseline: −10.5%
[3]; from 8.2% at baseline
  glycated hemoglobin (HbA1C) after treatment: 7.6%
[4]
  improvement in fasting glucose: 0.44 mM
  improvement in post-prandial serum glucose: 1.97 mM

## [Cl-].[Cl-].[Mg+2] [Mg, Magnesium Chloride]
[5]
  reduction of fasting glucose level vs baseline: No change
[6]
  effect on glucose levels: failed to show reduced glucose levels

## CCN(CC)CCO [diethylethanolamine]
[7]
  reduction of body weight: 9.5%
  reduction of weight gain: 48%

## OCCNCCO [diethanolamine]
[8]
  individuals developing asthma: 0.6%
